The values below come from patent publication US10793509B2, “Compounds useful in the treatment of neoplastic diseases” (UNIVERSITÄT ZU KÖLN, priority 2013, dated 2020).

Where “and” joins values, the source holds several entries; their conditions need not be identical. Identical values can stand only once.

In series [1] the test system is peripheral blood mononuclear cells (PBMCs) of healthy donors. Nature of the series: AnnexinV/PI assay on PBMCs of healthy donors. In kind it is cell-based. As to conditions: Homo sapiens, PBMC; 24 h incubation, 0.01-100 μM, 5*10^6 cells/ml, normalized to DMSO control; read-out: AnnexinV/PI assay EC50 PBMCs. How it is done: PBMCs or CLL cells (5*10^6 cells/ml) were incubated for 24 h with different compounds at concentrations from 0.01 to 100 μM. Cell survival was normalized to DMSO control [vehicle]. See Example 1.
Primary CLL or peripheral blood mononuclear cells of healthy donors (5*10^6/ml) were incubated for 24 h with different compounds according to the invention and NO-ASA as a control. The compounds were added in different concentrations, in particular in concentrations from 0.01-100 μM. Cell survival was assessed by AnnexinV/PI assay (Kit commercially available, e.g. by Biotium Inc, USA; or Phoenix Flow Systems, US), the results were normalized to DMSO control [vehicle] and dose response curves were calculated using a non-linear regression model.

For another series, the system named is GRANTA-519. Nature of the series: CellTiter-Glo ATP assay, GRANTA-519 cell line. In kind it is cell-based. As to conditions: Homo sapiens, Granta-519; 24 h, CellTiter-Glo. How it is done: (§1) Several cell lines (n=5) were treated with different concentrations of p-NO-ASA, B9, B12 and B13 ranging between 0.01 μM and 1000 μM for 24 hours followed by addition of luminogenic CellTiter-Glo®-reagent. […] For each cell line the order of used compound in the bar chart is from left to right as following: p-NO-ASA, B9, B12, B13.
(§2) Treatment success in CLL may depend on cytogenetic and molecular parameters as for instance del13q or TP53 gene disruption. Therefore, the NO-ASA derivatives were examined on (chronic) B cell lymphoma cell lines with different geno- and phenotypes (JVM3, EHEB, U2932, MEC-1, GRANTA-519). The cells were treated with concentrations between 0.01 and 1000 μM for 24 h followed by the addition of luminogenic CellTiter-Glo® reagent.
For orientation: ATP-based viability assays read luminescence as a measure of living cells.

A further series deals with caspases 3 and 7. Description: caspase-3/7 assay in CLL cells. In kind it is cell-based. As to conditions: Homo sapiens, CLL cell, 6 h, 0.01-20 μM, luminogenic caspase-3/7-substrate, read-out: activation of caspases 3 and 7, EC50. An excerpt: FIG. 8 depicts the involvement of caspase-mediated apoptosis in CLL cells upon treatment with p-NO-ASA, B9, B12 and B13. Representative blots of 3 independent experiments are shown. Untreated and DMSO (1%) treated cells served as control. beta-actin=loading control (FIG. 8A). para-NO-ASA and B9 induced a concentration-dependent increase in caspase-3/7-activation (FIG. 8B).
To determine whether the toxicity on CLL cells is due to caspase-mediated apoptosis, the cleavage of PARP (Poly(ADP-ribose)-Polymerase 1) and XIAP (X-linked inhibitor of apoptosis) was analyzed by immunoblot. CLL cells were cultured alone, with 1% DMSO or with EC50 of p-NO-ASA, meta-NO-ASA, B9, B12 and B13 for 24 h followed by protein lysation and western blot analysis using antibodies to detect prognostic apoptotic proteins (XIAP, PARP). […] All compounds tested induced PARP and XIAP cleavage (FIG. 8A). Further a caspase-3/7 assay was carried out. CLL cells were incubated with para-NO-ASA and B9 in different concentrations ranging from 0.01 μM to 20 μM for 6 h followed by addition of luminogenic caspase-3/7-substrate. This indicates the reduction of the survival of CLL cells upon treatment with p-NO-ASA and B9 due to the induction of caspase-mediated apoptosis.

Another series has as its system JVM-3. Description: CellTiter-Glo ATP assay, JVM-3 cell line. As to conditions: 24 h, 0.01-1000 μM. In kind it is cell-based, human. How it is done:
as §1, §2

The test system of series [2] is phosphorylated NFkappaBp65 protein. Nature of the series: Western blot of NFkappaB phosphorylation status in CLL cells. The class given is cell-based, human. As to conditions: 3 h. How it is done:
CLL cells were treated with B1, B9, B12 and B13 (0.1 μM, 1 μM, 10 μM) for 3 h. Untreated and DMSO (1%) treated cells served as control. GAPDH=loading control.
The BCR signalling pathway plays an important pathogenic role in CLL and lymphomas leading often to a constitutive active NFkappaB (in this state NFkappaB is phosphorylated). Therefore the influence of the derivatives on the phosphorylation status of NFkappaB was analyzed by Western Blot. CLL cells were treated with 0.1 μM, 1 μM or 10 μM of each derivate, respectively, for 3 h. CLL cells were treated with B1, B9, B12 and B13 (0.1 μM, 1 μM, 10 μM) for 3 h. Untreated and DMSO (1%) treated cells served as control. GAPDH=loading control.
For orientation: A western blot detects proteins with antibodies after separation by electrophoresis.

Series [3] has as its system JVM3 cells (human chronic B cell leukemia cell line). Description: CLL xenograft mouse model (JVM3 cells subcutaneously in SCID beige mice). The class given is in vivo. How it is done: Treatment with B9 leads to significant tumor inhibition compared to vehicle control (p=0.015) after nine days with increasing significance up to day 19 of treatment (p=0.0003). IRmax value of 65% for B9 over vehicle control was determined. *=p≤0.05, **=p≤0.01, ***=p≤0.001 calculated by unpaired two-tailed students test, †=death, IR=Inhibition ratio.
Due to its favorable characteristics B9 was chosen for in vivo testing in a CLL xenograft mouse model. JVM3 cells (human chronic B cell leukemia cell line) were injected subcuntaneously into the flank of immunincompetent mice. The developing solid tumor was treated with intraperitoneal injections of 8 mg/kg of compound B9 or sesame oil (vehicle) every other day (see FIG. 4).
1*10^7 JVM3 cells were injected subcutaneously in SCID beige mice (CB17.Cg-Prkdc^scidLyst^bg-J/Crl). Tumors were measured every other day by caliper and the tumor volume was calculated V=(Length*(0.5*Width^2)). Mice carrying a tumor of more than 50 mm^3 were treated every other day with either sesame oil (vehicle control) or with 8 mg/kg B9 solved in sesame oil via intraperitoneal injections. The abortion criteria given by the GV-SOLAS for tumor bearing mice were applied. p-values were calculated using unpaired two-tailed Students test.

Setting [4] is: mice, 8 mg/kg i.p. every other day.

Regarding `O=C(Oc1ccc(CO[N+](=O)[O-])cc1)c1ccccc1` [B9, 4-((nitrooxy)methyl)phenyl benzoate], the EC50 in series [1] is 79500 nM; in the series with GRANTA-519, 2280 nM; in the series on caspases 3 and 7, 230 nM. For the same molecule, the “ATP content in JVM-3” value in the series with JVM-3 is recorded as “reduced ATP content”. Also, the “reduction of NFkappaB activity (phosphorylated NFkappaBp65)” value in series [2] (CLL cells, 0.1, 1, 10 μM) is recorded as “concentration dependent reduction”. The “concentration inducing the reduction of NFkappaB p65 protein” value in series [2] (CLL cells) was found to be 10 µM. In series [3] (8 mg/kg i.p. every other day in sesame oil, highest at day 17), the “Inhibition ratio of tumor growth (IR, IRmax) over vehicle control” value is 65.33% and 65%. Besides, the tumor growth entry in series [3] (8 mg/kg i.p. every other day vs sesame oil vehicle) is recorded as “significant reduction in tumor growth”. The tumor volume in series [3] (Day 9 of treatment, 8 mg/kg i.p. every other day) is on record as 82.97 mm^3. Moreover, the bodyweight result in series [3] (setting [4]) is listed as “A reduction of bodyweight was not observed”. Moreover, the severe side effects entry in series [3] (setting [4]) was “Severe side effects were not observed”. Besides, the mobility after treatment entry in series [3] (mice, 8 mg/kg i.p. every other day, drinking and feeding normally) is “slightly reduced mobility for 15 to 30 min”.
